According to PMC5601486, “Identification of 4-phenylquinolin-2(1H)-one as a specific allosteric inhibitor of Akt” (Scientific Reports, 2017):

Experiments:
PRKG2 = assay: KINOMEscan; conditions: 50000 nM
Experimental: KINOMEscan™ selectivity screen
(§1) The assay was perfor med at DiscoveRx Corporation according the methods published previously5. Briefly, Kinase-tagged T7 phage strains were grown in parallel in an E. coli host derived from the BL21 strain. E. coli were grown to log-phase and infected with T7 phage from a frozen stock and incubated with shaking at 32°C until lysis (90-150 minutes). The kinases were produced in HEK-293 cells and subsequently tagged with DNA for qPCR detection. Streptavidin-coated magnetic beads were treated with biotinylated small molecule ligands to generate affinity resins for kinase
(§2) inhibitor or DMSO control was performed in polypropylene 384-well plates for 1 hr at room temperature. After wash with PBS buffer containing 0.05% Tween 20, the beads were incubated in elution buffer (PBS containing 0.05 % Tween 20 and 0.5 μM non-biotinylated affinity ligand) for 30 minutes at room temperature. The kinase concentration in the eluates was measured by qPCR.

TRPM6 = assay: KINOMEscan; conditions: 50000 nM
Experimental: KINOMEscan™ selectivity screen
(§3) Briefly, Kinase-tagged T7 phage strains were grown in parallel in an E. coli host derived from the BL21 strain. E. coli were grown to log-phase and infected with T7 phage from a frozen stock and incubated with shaking at 32°C until lysis (90-150 minutes). The kinases were produced in HEK-293 cells and subsequently tagged with DNA for qPCR detection. Streptavidin-coated magnetic beads were treated with biotinylated small molecule ligands to generate affinity resins for kinase
as §2

PIK3CA(H1047L) = assay: KINOMEscan; conditions: 50000 nM
Experimental: KINOMEscan™ selectivity screen
as §1, §2

PKAC-alpha = assay: KINOMEscan; conditions: 50000 nM
Experimental: KINOMEscan™ selectivity screen
as §3, §2

EPHB6 = assay: KINOMEscan; conditions: 50000 nM
Experimental: KINOMEscan™ selectivity screen
as §1, §2

EPHB4 = assay: KINOMEscan; conditions: 50000 nM
Experimental: KINOMEscan™ selectivity screen
as §3, §2

PIK3CA(E545K) = assay: KINOMEscan; conditions: 50000 nM
Experimental: KINOMEscan™ selectivity screen
as §1, §2

over 380 human kinases = assay: KINOMEscan selectivity screen (whole panel); conditions: 50000 nM; 403 non-mutant kinases
Experimental: KINOMEscan™ selectivity screen
as §1, §2

PRKCD = assay: KINOMEscan; conditions: 50000 nM
Experimental: KINOMEscan™ selectivity screen
as §1, §2

INSRR = assay: KINOMEscan; conditions: 50000 nM
Experimental: KINOMEscan™ selectivity screen
as §1, §2

MEK1 = assay: KINOMEscan; conditions: 50000 nM
Experimental: KINOMEscan™ selectivity screen
as §3, §2

CDKL5 = assay: KINOMEscan; conditions: 50000 nM
Experimental: KINOMEscan™ selectivity screen
as §3, §2

FGR = assay: KINOMEscan; conditions: 50000 nM
Experimental: KINOMEscan™ selectivity screen
as §1, §2

PLK1 = assay: KINOMEscan; conditions: 50000 nM
Experimental: KINOMEscan™ selectivity screen
as §1, §2

GSK3A = assay: KINOMEscan; conditions: 50000 nM
Experimental: KINOMEscan™ selectivity screen
as §3, §2

TAOK1 = assay: KINOMEscan; conditions: 50000 nM
Experimental: KINOMEscan™ selectivity screen
as §1, §2

PKNB(M.tuberculosis) = system: T1, PKNB(M.tuberculosis); assay: KINOMEscan; type: binding; conditions: 50000 nM
T1 construct: purchased DiscoveRx KINOMEscan

CDKL1 = assay: KINOMEscan; conditions: 50000 nM
Experimental: KINOMEscan™ selectivity screen
as §3, §2

LCK = assay: KINOMEscan; conditions: 50000 nM
Experimental: KINOMEscan™ selectivity screen
as §1, §2

PHKG1 = assay: KINOMEscan; conditions: 50000 nM
Experimental: KINOMEscan™ selectivity screen
as §3, §2

BRSK2 = assay: KINOMEscan; conditions: 50000 nM
Experimental: KINOMEscan™ selectivity screen
as §1, §2

HIPK3 = assay: KINOMEscan; conditions: 50000 nM
Experimental: KINOMEscan™ selectivity screen
as §3, §2

FLT3(ITD) = assay: KINOMEscan; conditions: 50000 nM
Experimental: KINOMEscan™ selectivity screen
(§4) The assay was perfor med at DiscoveRx Corporation according the methods published previously5. […] The kinases were produced in HEK-293 cells and subsequently tagged with DNA for qPCR detection. Streptavidin-coated magnetic beads were treated with biotinylated small molecule ligands to generate affinity resins for kinase
as §2

KIT = assay: KINOMEscan; conditions: 50000 nM
Experimental: KINOMEscan™ selectivity screen
as §3, §2

IGF1R = assay: KINOMEscan; conditions: 50000 nM
Experimental: KINOMEscan™ selectivity screen
as §4, §2

EPHA8 = assay: KINOMEscan; conditions: 50000 nM
Experimental: KINOMEscan™ selectivity screen
as §1, §2

HASPIN = assay: KINOMEscan; conditions: 50000 nM
Experimental: KINOMEscan™ selectivity screen
as §1, §2

EGFR(G719C) = assay: KINOMEscan; conditions: 50000 nM
Experimental: KINOMEscan™ selectivity screen
as §3, §2

CSNK1D = assay: KINOMEscan; conditions: 50000 nM
Experimental: KINOMEscan™ selectivity screen
as §1, §2

TYRO3 = assay: KINOMEscan; conditions: 50000 nM
Experimental: KINOMEscan™ selectivity screen
as §1, §2

PRKD1 = assay: KINOMEscan; conditions: 50000 nM
Experimental: KINOMEscan™ selectivity screen
as §1, §2

CTK = assay: KINOMEscan; conditions: 50000 nM
Experimental: KINOMEscan™ selectivity screen
as §3, §2

CSNK1G1 = assay: KINOMEscan; conditions: 50000 nM
Experimental: KINOMEscan™ selectivity screen
as §1, §2

[1] = system: ABL1(T315I)-phosphorylated; assay: KINOMEscan; conditions: 50000 nM
Experimental: KINOMEscan™ selectivity screen
as §1, §2

PIP5K1C = assay: KINOMEscan; conditions: 50000 nM
Experimental: KINOMEscan™ selectivity screen
as §1, §2

ERK2 = assay: KINOMEscan; conditions: 50000 nM
Experimental: KINOMEscan™ selectivity screen
as §1, §2

FLT3(N841I) = assay: KINOMEscan; conditions: 50000 nM
Experimental: KINOMEscan™ selectivity screen
as §3, §2

p38-delta = assay: KINOMEscan; conditions: 50000 nM
Experimental: KINOMEscan™ selectivity screen
as §3, §2

DRAK1 = assay: KINOMEscan; conditions: 50000 nM
Experimental: KINOMEscan™ selectivity screen
as §3, §2

DMPK2 = assay: KINOMEscan; conditions: 50000 nM
Experimental: KINOMEscan™ selectivity screen
as §1, §2

## Oc1cc(-c2ccccc2)c2ccccc2n1 [G7, 4-phenylquinolin-2(1H)-one]
PRKG2
  Percent Control: 100%
TRPM6
  Percent Control: 78%
PIK3CA(H1047L)
  Percent Control: 89%
PKAC-alpha
  Percent Control: 87%
EPHB6
  Percent Control: 14%
EPHB4
  Percent Control: 92%
PIK3CA(E545K)
  Percent Control: 98%
Over 380 human kinases
  Number of Hits S(1): 0
  Number of Hits S(10): 2
  Number of Hits S(35): 14
  Selectivity Score S(10): 0.005
  Selectivity Score S(35): 0.035
PRKCD
  Percent Control: 100%
INSRR
  Percent Control: 64%
MEK1
  Percent Control: 69%
CDKL5
  Percent Control: 100%
FGR
  Percent Control: 88%
PLK1
  Percent Control: 100%
GSK3A
  Percent Control: 22%
TAOK1
  Percent Control: 95%
PKNB(M.tuberculosis)
  Percent Control: 43%
CDKL1
  Percent Control: 100%
LCK
  Percent Control: 80%
PHKG1
  Percent Control: 79%
BRSK2
  Percent Control: 82%
HIPK3
  Percent Control: 65%
FLT3(ITD)
  Percent Control: 52%
KIT
  Percent Control: 26%
IGF1R
  Percent Control: 76%
EPHA8
  Percent Control: 93%
HASPIN
  Percent Control: 57%
EGFR(G719C)
  Percent Control: 79%
CSNK1D
  Percent Control: 45%
TYRO3
  Percent Control: 93%
PRKD1
  Percent Control: 96%
CTK
  Percent Control: 74%
CSNK1G1
  Percent Control: 89%
[1]
  Percent Control: 64%
PIP5K1C
  Percent Control: 44%
ERK2
  Percent Control: 93%
FLT3(N841I)
  Percent Control: 30%
p38-delta
  Percent Control: 100%
DRAK1
  Percent Control: 65%
DMPK2
  Percent Control: 100%
